Assay results: patent US7135466B2 (Kirin Beer Kabushiki Kaisha, priority 1999, dated 2006)
Where two headings read alike, the source gives them in different places.

Legend:
c-kit = target: T1, c-kit (Homo sapiens, UniProt P10721); test: Inhibitory activity against c-kit autophosphorylation (MO7e cells, h-SCF); assay type: cell-based; settings: for IC50: MO7e cells, read-out: c-kit IC50; for inhibition at 1 µM: Mo7e; for c-kit inhibition (%) at 1000 nM / inhibition at 1 µM: at 1000 nM
T1 construct: MO7e (human megakaryocytic leukemia cell line) which had been arrested for 20 hr; endogenous in cells; host or cells: MO7e human megakaryocytic leukemia cell line
Summary of the method: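 First, human megakaryocytic leukemia MO7e cells arrested 20 hr receive compound for one hour. Second, SCF stimulation (50 ng/ml) runs 5 min, after which cells are solubilized. Third, tyrosine-phosphorylated c-kit in the lysate is quantified by sandwich ELISA with absorbance at 450 nm.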

PDGF-Ra = target: T2, PDGF-Ra (Homo sapiens, UniProt P16234); test: Inhibitory activity against PDGF-Ra phosphorylation by PDGF-AA stimulation using G292; assay type: cell-based; settings: for IC50: > means inhibition at indicated concentration not more than 50%, < and << not less than 50%, read-out: PDGF (E) IC50; for inhibition at 0.1 µM: G292, at 100 nM, read-out: PDGF (E) inhibition (%) at 100 nM
T2 construct: host or cells: G-292 human osteosarcoma cells
Summary of the method: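 In G-292 osteosarcoma cells kept overnight in 0.1% FBS, compound exposure (1 hr, 37 °C) preceded PDGF-AA stimulation at 50 ng/ml for 5 min; receptor phosphotyrosine was then detected by PY-20 capture ELISA.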

[1] = figure within parentheses in −( ) or >1000( )

T2 sequence (P16234 24-1089): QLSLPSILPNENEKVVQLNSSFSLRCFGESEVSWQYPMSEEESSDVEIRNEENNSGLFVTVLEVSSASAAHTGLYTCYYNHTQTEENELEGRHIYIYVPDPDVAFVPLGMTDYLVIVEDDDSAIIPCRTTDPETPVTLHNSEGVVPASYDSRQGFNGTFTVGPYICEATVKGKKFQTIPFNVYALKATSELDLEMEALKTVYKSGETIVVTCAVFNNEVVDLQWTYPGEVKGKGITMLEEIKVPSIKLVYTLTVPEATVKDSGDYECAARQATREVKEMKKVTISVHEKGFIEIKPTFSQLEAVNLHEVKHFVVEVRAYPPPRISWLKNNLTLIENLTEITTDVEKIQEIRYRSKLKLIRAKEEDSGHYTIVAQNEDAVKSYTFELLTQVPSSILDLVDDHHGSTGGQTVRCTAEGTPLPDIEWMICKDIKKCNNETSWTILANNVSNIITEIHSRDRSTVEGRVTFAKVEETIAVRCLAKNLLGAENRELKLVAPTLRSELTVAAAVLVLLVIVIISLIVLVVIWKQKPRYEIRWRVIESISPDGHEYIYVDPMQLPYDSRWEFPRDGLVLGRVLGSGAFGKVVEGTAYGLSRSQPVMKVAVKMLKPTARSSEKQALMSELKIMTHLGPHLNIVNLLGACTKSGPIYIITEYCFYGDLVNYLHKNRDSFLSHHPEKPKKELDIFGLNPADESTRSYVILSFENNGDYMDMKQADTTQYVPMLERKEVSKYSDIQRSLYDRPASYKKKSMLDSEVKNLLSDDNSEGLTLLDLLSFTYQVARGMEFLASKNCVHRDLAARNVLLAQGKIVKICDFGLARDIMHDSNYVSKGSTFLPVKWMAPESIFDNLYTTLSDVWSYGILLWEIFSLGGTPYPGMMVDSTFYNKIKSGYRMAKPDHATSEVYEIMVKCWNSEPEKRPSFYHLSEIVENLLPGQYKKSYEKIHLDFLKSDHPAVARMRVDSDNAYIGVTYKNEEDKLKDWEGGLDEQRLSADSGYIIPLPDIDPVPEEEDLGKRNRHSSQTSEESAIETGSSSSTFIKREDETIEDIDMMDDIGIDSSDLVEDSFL
T1 sequence (P10721 26-976): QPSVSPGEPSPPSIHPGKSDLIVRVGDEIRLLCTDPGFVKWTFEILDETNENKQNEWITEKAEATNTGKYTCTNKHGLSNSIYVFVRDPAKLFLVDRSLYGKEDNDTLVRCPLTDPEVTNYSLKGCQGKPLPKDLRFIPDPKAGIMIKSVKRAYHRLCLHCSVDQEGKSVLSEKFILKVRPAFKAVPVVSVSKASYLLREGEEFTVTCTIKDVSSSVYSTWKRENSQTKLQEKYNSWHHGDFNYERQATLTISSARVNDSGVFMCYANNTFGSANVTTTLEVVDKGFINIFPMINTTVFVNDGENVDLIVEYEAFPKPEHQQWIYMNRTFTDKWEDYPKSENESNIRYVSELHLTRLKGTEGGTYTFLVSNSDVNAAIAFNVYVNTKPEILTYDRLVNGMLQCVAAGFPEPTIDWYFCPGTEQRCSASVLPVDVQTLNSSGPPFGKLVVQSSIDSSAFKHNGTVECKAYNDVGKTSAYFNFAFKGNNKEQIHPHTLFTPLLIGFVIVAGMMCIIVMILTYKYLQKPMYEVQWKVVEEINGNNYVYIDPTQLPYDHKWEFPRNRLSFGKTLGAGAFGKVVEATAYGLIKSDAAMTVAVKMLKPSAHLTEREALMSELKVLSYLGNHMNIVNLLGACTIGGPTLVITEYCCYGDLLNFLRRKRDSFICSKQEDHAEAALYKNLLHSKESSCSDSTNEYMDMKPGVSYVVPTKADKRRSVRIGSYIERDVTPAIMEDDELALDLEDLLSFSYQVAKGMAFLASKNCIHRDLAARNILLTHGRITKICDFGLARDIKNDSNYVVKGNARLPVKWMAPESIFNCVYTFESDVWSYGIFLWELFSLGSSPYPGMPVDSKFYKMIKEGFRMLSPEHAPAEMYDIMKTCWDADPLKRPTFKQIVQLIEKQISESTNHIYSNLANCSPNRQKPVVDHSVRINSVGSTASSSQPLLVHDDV

For CCCC(CCC)OC(=O)Nc1ccc(Oc2ccnc3cc(OC)c(OC)cc23)c(C)c1C [Example 334, 1-Propylbutyl N-{4-[(6,7-dimethoxy-4-quinolyl)oxy]-2,3-dimethylphenyl}carbamate], the IC50 (c-kit; h-SCF 50 ng/ml) was 0.484 µM and the IC50 (PDGF-Ra; Pharmacological Test Example 1) was under 0.01 µM.
Work on CCCC1CCC(C(=O)NC(=S)Nc2ccc(Oc3ncnc4cc(OC)c(OC)cc34)cc2)CC1 (stereo not shown) [Example 1197, N-{4-[(6,7-Dimethoxy-4-quinazolinyl)oxy]phenyl}-N′-[(4-propylcyclohexyl)carbonyl]thiourea] yielded an IC50 (c-kit; h-SCF stimulation) of 0.219 µM and an IC50 (PDGF-Ra) of 0.025 µM.
In the case of COc1cc2nccc(Oc3ccc(NC(=O)OCc4ccc(Cl)cc4)c(C)c3C)c2cc1OC [Example 237, 4-Chlorobenzyl N-{4-[(6,7-dimethoxy-4-quinolyl)oxy]-2,3-dimethylphenyl}carbamate], the IC50 (c-kit; h-SCF 50 ng/ml) is reported as 0.042 µM and the IC50 (PDGF-Ra; Pharmacological Test Example 1) is reported as 0.006 µM.
In the case of COc1cc2nccc(Oc3cc(C)c(NC(=O)OCc4ccc(Cl)cc4)cc3C)c2cc1OC [Example 243, 4-Chlorobenzyl N-{4-[(6,7-dimethoxy-4-quinolyl)oxy]-2,5-dimethylphenyl}carbamate], the IC50 (c-kit; h-SCF 50 ng/ml) is reported as 0.19 µM and the IC50 (PDGF-Ra; Pharmacological Test Example 1) is reported as 0.02 µM.
Compound COc1cc2nccc(Oc3ccc(NC(=O)NCCN4CCOCC4)c(C)c3C)c2cc1OC [Example 617, N-{4-[(6,7-Dimethoxy-4-quinolyl)oxy]-2,3-dimethylphenyl}-N′-(2-morpholinoethyl)urea] has an IC50 (c-kit; 50 ng/ml h-SCF) of 0.172 µM and an IC50 (PDGF-Ra) of under 0.01 µM.
With COc1cc2ncnc(Oc3ccc(NC(=O)OCc4ccc(C(F)(F)F)cc4)cc3)c2cc1OC [Example 24, 4-(Trifluoromethyl)benzyl N-{4-[(6,7-dimethoxy-4-quinazolinyl)oxy]phenyl}carbamate] the IC50 (c-kit; h-SCF 50 ng/ml) was 0.129 µM and the IC50 (PDGF-Ra; Pharmacological Test Example 1) was under 0.01 µM.
In the case of COc1cc2nccc(Oc3ccc(NC(=S)NC(=O)c4ccc(C)cc4)cc3)c2cc1OC [Example 959, N-{4-[(6,7-Dimethoxy-4-quinolyl)oxy]phenyl}-N′-(4-methylbenzoyl)thiourea], the IC50 (c-kit; h-SCF stimulation) is reported as 0.3 µM and the IC50 (PDGF-Ra) is reported as under 0.01 µM.
In the case of COc1cc2nccc(Oc3ccc(NC(=S)NC(=O)c4ccccc4C(F)(F)F)cc3F)c2cc1OC [Example 917, N-{4-[(6,7-Dimethoxy-4-quinolyl)oxy]-3-fluorophenyl}-N′-[2-(trifluoromethyl)benzoyl]thiourea], the IC50 (c-kit; h-SCF stimulation) is reported as 0.546 µM and the IC50 (PDGF-Ra) is reported as 0.132 µM.
With “N-{4-[(6,7-Dimethoxy-4-quinolyl)oxy]-2-chlorophenyl}-N′-(1-piperidinyl)urea [Example 595]” the “c-kit inhibition (%) at 1000 nM” value (c-kit; [1]) was “−(0) %” and the IC50 (PDGF-Ra) was 0.046 µM.
COc1cc2nccc(Oc3ccc(NC(=S)NC(=O)Cc4ccccc4)c(C)c3C)c2cc1OC [Example 1105, N-{4-[(6,7-Dimethoxy-4-quinolyl)oxy]-2,3-dimethylphenyl}-N′-(2-phenylacetyl)thiourea] was tested, and the “c-kit inhibition (%) at 1000 nM” value (c-kit; figure in parentheses in −( ), 1 µM) was “−(1) %”, the IC50 (PDGF-Ra) was over 0.1 µM and the inhibition at 0.1 µM (PDGF-Ra; figure in parentheses in >100( )) was 31%.
For COc1cc2nccc(Oc3ccc(NC(=S)NC(=O)[C@H](C)c4ccccc4)cc3)c2cc1OC [Example 743, N-{4-[(6,7-Dimethoxy-4-quinolyl)oxy]phenyl}-N′-[(2R)-2-phenylpropanoyl]thiourea], the IC50 (c-kit; 50 ng/ml h-SCF) was 0.548 µM and the IC50 (PDGF-Ra) was 0.01 µM.
With COc1cc2nccc(Oc3ccc(NC(=S)NC(=O)Cc4cccs4)cc3Cl)c2cc1OC [Example 701, N-{3-Chloro-4-[(6,7-dimethoxy-4-quinolyl)oxy]phenyl}-N′-[2-(2-thienyl)acetyl]thiourea] the IC50 (c-kit; 50 ng/ml h-SCF) was 0.459 µM and the IC50 (PDGF-Ra) was under 0.01 µM.
With CCC(OC(=O)Nc1ccc(Oc2ccnc3cc(OC)c(OC)cc23)c(C)c1C)c1ccccc1 (stereo not shown) [Example 265, 1-Phenylpropyl N-{4-[(6,7-dimethoxy-4-quinolyl)oxy]-2,3-dimethylphenyl}carbamate] the IC50 (c-kit; h-SCF 50 ng/ml) was 0.122 µM and the IC50 (PDGF-Ra; Pharmacological Test Example 1) was 0.035 µM.
For COc1cc2nccc(Oc3ccc(NC(=O)OCc4ccc(C(F)(F)F)cc4)c(C)c3C)c2cc1OC [Example 22, 4-(Trifluoromethyl)benzyl N-{4-[(6,7-dimethoxy-4-quinolyl)oxy]-2,3-dimethylphenyl}carbamate], the IC50 (c-kit; h-SCF 50 ng/ml) was 0.186 µM and the IC50 (PDGF-Ra; Pharmacological Test Example 1) was under 0.01 µM.
COc1cc2nccc(Oc3ccc(NCCOc4c(OC)cccc4OC)c(C)c3C)c2cc1OC [Example 884, N-[2-(2,6-Dimethoxyphenoxy)ethyl]-N-{4-[(6,7-dimethoxy-4-quinolyl)oxy]-2,3-dimethylphenyl}amine] was tested, and the inhibition at 1 µM (c-kit; figure in parentheses in −( )) was 30% and the IC50 (PDGF-Ra) was 0.044 µM.
CCOc1ccccc1C(C)OC(=O)Nc1cc(C)c(Oc2ccnc3cc(OC)c(OC)cc23)cc1C (stereo not shown) [Example 129, 1-(2-Ethoxyphenyl)-ethyl N-{4-[(6,7-dimethoxy-4-quinolyl)oxy]-2,5-dimethylphenyl}carbamate] was tested, and the IC50 (c-kit; h-SCF 50 ng/ml) was 0.732 µM and the IC50 (PDGF-Ra; Pharmacological Test Example 1) was 0.064 µM.
Work on COc1ccc(OCCCOc2ccc(Oc3ccnc4cc(OC)c(OC)cc34)cc2)cc1 [Example 794, 6,7-Dimethoxy-4-{4-[3-(4-methoxy-phenoxy)propoxy]phenoxy}quinoline] yielded an IC50 (c-kit; 50 ng/ml h-SCF) of 0.192 µM and an IC50 (PDGF-Ra) of 0.014 µM.
COc1cc2nccc(Oc3cc(C)c(NC(=O)OCCCSc4ccccn4)cc3C)c2cc1OC [Example 174, 3-(2-Pyridylsulfanyl)propyl N-{4-[(6,7-dimethoxy-4-quinolyl)oxy]-2,5-dimethylphenyl}-carbamate] showed an IC50 (c-kit; h-SCF 50 ng/ml) of 0.07 µM and an IC50 (PDGF-Ra; Pharmacological Test Example 1) of under 0.01 µM.
CCOCCC(=O)NC(=S)Nc1ccc(Oc2ccnc3cc(OC)c(OC)cc23)cc1 [Example 1065, N-{4-[(6,7-Dimethoxy-4-quinolyl)oxy]phenyl}-N′-(3-ethoxypropanoyl)thiourea] gave an IC50 (c-kit; h-SCF stimulation) of 0.566 µM and an IC50 (PDGF-Ra) of 0.019 µM.
COc1cc2nccc(Oc3ccc(NC(=O)OC4CCOCC4)c(C)c3C)c2cc1OC [Example 472, Tetrahydro-2H-4-pyranyl N-{4-[(6,7-dimethoxy-4-quinolyl)oxy]-2,3-dimethylphenyl}carbamate] showed an IC50 (c-kit; 50 ng/ml h-SCF) of 0.067 µM and an IC50 (PDGF-Ra) of 0.031 µM.
COc1cc2ncnc(Oc3ccc(NC(=O)OCCCOc4ccc(Cl)cc4)c(Cl)c3)c2cc1OC [Example 31, 3-(4-Chlorophenoxy)propyl N-{2-chloro-4-[(6,7-dimethoxy-4-quinazolinyl)oxy]phenyl}carbamate] was tested, and the IC50 (c-kit; h-SCF 50 ng/ml) was 0.221 µM and the IC50 (PDGF-Ra; Pharmacological Test Example 1) was under 0.01 µM.
In the case of COc1cc2nccc(Oc3cc(C)c(NC(=O)OCCc4ccccc4)cc3C)c2cc1OC [Example 298, Phenethyl N-{4-[(6,7-dimethoxy-4-quinolyl)oxy]-2,5-dimethylphenyl}carbamate], the IC50 (c-kit; h-SCF 50 ng/ml) is reported as 0.119 µM and the IC50 (PDGF-Ra; Pharmacological Test Example 1) is reported as under 0.01 µM.
COc1cc(Oc2ncnc3cc(OC)c(OC)cc23)ccc1NC(=O)NCCCN1CCN(C)CC1 [Example 633, N-{4-[(6,7-Dimethoxy-4-quinazolinyl)oxy]-2-methoxyphenyl}-N′-[3-(4-methylpiperazino)-propyl]urea] gave an inhibition at 1 µM (c-kit; [1]) of 28% and an IC50 (PDGF-Ra) of 0.058 µM.
With COc1cc2nccc(Oc3ccc(NCCCOc4ccccc4C)cc3)c2cc1OC [Example 888, N-{4-[(6,7-Dimethoxy-4-quinolyl)oxy]phenyl}-N-[3-(2-methylphenoxy)propyl]amine] the IC50 (c-kit; h-SCF stimulation) was 0.385 µM and the IC50 (PDGF-Ra) was 0.012 µM.
With COc1cc(Oc2ncnc3cc(OC)c(OC)cc23)ccc1NC(=O)NCCN(C(C)C)C(C)C [Example 660, N-[2-(Diisopropylamino)ethyl]-N′-{4-[(6,7-dimethoxy-4-quinazolinyl)oxy]-2-methoxyphenyl}urea] the IC50 (c-kit; 50 ng/ml h-SCF) was 0.835 µM and the IC50 (PDGF-Ra) was 0.025 µM.
Compound CCCCC(C)C(=O)NC(=S)Nc1ccc(Oc2ccnc3cc(OC)c(OC)cc23)cc1 (stereo not shown) [Example 1074, N-{4-[(6,7-Dimethoxy-4-quinolyl)oxy]phenyl}-N′-(2-methylhexanoyl)thiourea] has an IC50 (c-kit; h-SCF stimulation) of 0.289 µM and an IC50 (PDGF-Ra) of under 0.01 µM.
Compound COc1cc2nccc(Oc3ccc(NC(=S)NC(=O)C4CC4)cc3Cl)c2cc1OC [Example 1058, N-{3-Chloro-4-[(6,7-dimethoxy-4-quinolyl)oxy]phenyl}-N′-cyclopropylcarbonylthiourea] has an inhibition at 1 µM (c-kit; figure in parentheses in −( )) of 21% and an IC50 (PDGF-Ra) of 0.008 µM.
COc1cc2nccc(Oc3ccc(NC(=O)OCc4ccc(C)cc4)cc3)c2cc1OC [Example 252, 4-Methylbenzyl N-{4-[(6,7-dimethoxy-4-quinolyl)oxy]phenyl}carbamate] was tested, and the IC50 (c-kit; h-SCF 50 ng/ml) was 0.111 µM and the IC50 (PDGF-Ra; Pharmacological Test Example 1) was 0.006 µM.
In the case of CCCC(CC)OC(=O)Nc1ccc(Oc2ccnc3cc(OC)c(OC)cc23)cc1 (stereo not shown) [Example 258, 1-Ethylbutyl N-{4-[(6,7-dimethoxy-4-quinolyl)oxy]phenyl}carbamate], the IC50 (c-kit; h-SCF 50 ng/ml) is reported as 0.178 µM and the IC50 (PDGF-Ra; Pharmacological Test Example 1) is reported as 0.003 µM.
Work on C#CCC(CC)OC(=O)Nc1ccc(Oc2ncnc3cc(OC)c(OC)cc23)cc1[N+](=O)[O-] (stereo not shown) [Example 510, 1-Ethyl-3-butynyl N-{4-[(6,7-dimethoxy-4-quinazolinyl)oxy]-2-nitrophenyl}carbamate] yielded an inhibition at 1 µM (c-kit; [1]) of 17%, an IC50 (PDGF-Ra) of over 0.1 µM and an inhibition at 0.1 µM (PDGF-Ra; figure within parentheses in >100( )) of 3%.
Compound CCN(CCNC(=O)Nc1ccc(Oc2ncnc3cc(OC)c(OC)cc23)cc1OC)c1cccc(C)c1 [Example 668, N-{4-[(6,7-Dimethoxy-4-quinazolinyl)oxy]-2-methoxyphenyl}-N′-[2-(ethyl-3-methylanilino)ethyl]urea] has an IC50 (c-kit; 50 ng/ml h-SCF) of 0.144 µM and an IC50 (PDGF-Ra) of under 0.01 µM.
